Key:
Test in all cases: Herbicidal effect by foliage and soil treatment
Assay type in all cases: in vivo
Conditions in all cases: 10 g ai/10a, evaluated after 14 days
[1] = test system: black nightshade (Solanum nigrum)
Method in brief: (§1)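 Seedlings grown in granular soil in a 19–25 °C greenhouse to the cotyledon–two-leaf stage were sprayed over foliage and soil with compound in Tween 20/water at a set application rate. Growth was scored on a rating scale against untreated plants after 14 days.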

[2] = test system: cleavers (Galium aparine)
Method in brief: as §1

[3] = test system: common blackjack (Bidens pilosa)
Method in brief: as §1

[4] = test system: common chickweed (Stellaria media)
Method in brief: as §1

[5] = test system: field bindweed (Convolvulus arvensis)
Method in brief: as §1

[6] = test system: ivyleafspeedwell (Veronica hederaefolia)
Method in brief: as §1

[7] = test system: kediock (Sinapis arvensis)
Method in brief: as §1

[8] = test system: redroot pigweed (Amaranthus retroflexus)
Method in brief: as §1

[9] = test system: sicklepod (Cassia obtusifolia)
Method in brief: as §1

[10] = test system: velvetleaf (Abutilon theophrasti)
Method in brief: as §1

[11] = test system: wild chamomile (Matricaria chamomilla)
Method in brief: as §1

SMILES	herbicidal activity rating, SN (Solanum nigrum) [1]	herbicidal activity rating, GA (Galium aparine) [2]	herbicidal activity rating, BP (Bidens pilosa) [3]	herbicidal activity rating, SM (Stellaria media) [4]	herbicidal activity rating, CA (Convolvulus arvensis) [5]	herbicidal activity rating, VH (Veronica hederaefolia) [6]	herbicidal activity rating, SA (Sinapis arvensis) [7]	herbicidal activity rating, AR (Amaranthus retroflexus) [8]	herbicidal activity rating, CO (Cassia obtusifolia) [9]	herbicidal activity rating, AT (Abutilon theophrasti) [10]	herbicidal activity rating, MC (Matricaria chamomilla) [11]
CCCNC(=S)c1cccc(Oc2cccc(C(F)(F)F)c2)n1 [control (c)]	4 (percentage of weeds killed was not less than 60% and less than 80%)	4 (percentage of weeds killed was not less than 60% and less than 80%)	1 (percentage of weeds killed was less than 20%)	3 (percentage of weeds killed was not less than 40% and less than 60%)	2 (percentage of weeds killed was not less than 20% and less than 40%)	5 (percentage of weeds killed was not less than 80%)	5 (percentage of weeds killed was not less than 80%)	5 (percentage of weeds killed was not less than 80%)	2 (percentage of weeds killed was not less than 20% and less than 40%)	3 (percentage of weeds killed was not less than 40% and less than 60%)	1 (percentage of weeds killed was less than 20%)
CCCNC(=O)c1cccc(Oc2cccc(C(F)(F)F)c2)n1 [control (b)]	5 (percentage of weeds killed was not less than 80%)	5 (percentage of weeds killed was not less than 80%)	1 (percentage of weeds killed was less than 20%)	4 (percentage of weeds killed was not less than 60% and less than 80%)	2 (percentage of weeds killed was not less than 20% and less than 40%)	5 (percentage of weeds killed was not less than 80%)	5 (percentage of weeds killed was not less than 80%)	5 (percentage of weeds killed was not less than 80%)	3 (percentage of weeds killed was not less than 40% and less than 60%)	3 (percentage of weeds killed was not less than 40% and less than 60%)	1 (percentage of weeds killed was less than 20%)
COc1cc(Oc2cccc(C(F)(F)F)c2)nc(C(=O)NCC2CC2)c1 [Compound I-85]	5 (percentage of weeds killed was not less than 80%)	5 (percentage of weeds killed was not less than 80%)	4 (percentage of weeds killed was not less than 60% and less than 80%)	5 (percentage of weeds killed was not less than 80%)	4 (percentage of weeds killed was not less than 60% and less than 80%)	5 (percentage of weeds killed was not less than 80%)	5 (percentage of weeds killed was not less than 80%)	5 (percentage of weeds killed was not less than 80%)	5 (percentage of weeds killed was not less than 80%)	5 (percentage of weeds killed was not less than 80%)	5 (percentage of weeds killed was not less than 80%)
CCNC(=S)c1cc(OC)cc(Oc2cccc(C(F)(F)F)c2)n1 [Compound I-44]	5 (percentage of weeds killed was not less than 80%)	5 (percentage of weeds killed was not less than 80%)	4 (percentage of weeds killed was not less than 60% and less than 80%)	5 (percentage of weeds killed was not less than 80%)	4 (percentage of weeds killed was not less than 60% and less than 80%)	5 (percentage of weeds killed was not less than 80%)	5 (percentage of weeds killed was not less than 80%)	5 (percentage of weeds killed was not less than 80%)	5 (percentage of weeds killed was not less than 80%)	4 (percentage of weeds killed was not less than 60% and less than 80%)	3 (percentage of weeds killed was not less than 40% and less than 60%)
COc1cc(Oc2cccc(C(F)(F)F)c2)nc(C(=O)Nc2ccc(F)cc2)c1 [Compound I-11]	5 (percentage of weeds killed was not less than 80%)	5 (percentage of weeds killed was not less than 80%)	5 (percentage of weeds killed was not less than 80%)	4 (percentage of weeds killed was not less than 60% and less than 80%)	4 (percentage of weeds killed was not less than 60% and less than 80%)	5 (percentage of weeds killed was not less than 80%)	5 (percentage of weeds killed was not less than 80%)	5 (percentage of weeds killed was not less than 80%)	5 (percentage of weeds killed was not less than 80%)	3 (percentage of weeds killed was not less than 40% and less than 60%)	4 (percentage of weeds killed was not less than 60% and less than 80%)
COc1cc(Oc2cccc(C(F)(F)F)c2)nc(C(=O)NCCC#N)c1 [Compound I-71]	5 (percentage of weeds killed was not less than 80%)	5 (percentage of weeds killed was not less than 80%)	5 (percentage of weeds killed was not less than 80%)	5 (percentage of weeds killed was not less than 80%)	5 (percentage of weeds killed was not less than 80%)	5 (percentage of weeds killed was not less than 80%)	5 (percentage of weeds killed was not less than 80%)	5 (percentage of weeds killed was not less than 80%)	5 (percentage of weeds killed was not less than 80%)	4 (percentage of weeds killed was not less than 60% and less than 80%)	4 (percentage of weeds killed was not less than 60% and less than 80%)
COc1cc(Oc2cccc(C(F)(F)F)c2)nc(C(=O)NCS(C)(=O)=O)c1 [Compound I-127]	5 (percentage of weeds killed was not less than 80%)	5 (percentage of weeds killed was not less than 80%)	5 (percentage of weeds killed was not less than 80%)	5 (percentage of weeds killed was not less than 80%)	5 (percentage of weeds killed was not less than 80%)	5 (percentage of weeds killed was not less than 80%)	5 (percentage of weeds killed was not less than 80%)	5 (percentage of weeds killed was not less than 80%)	5 (percentage of weeds killed was not less than 80%)	5 (percentage of weeds killed was not less than 80%)	4 (percentage of weeds killed was not less than 60% and less than 80%)
COc1cc(Oc2cccc(C(F)(F)F)c2)nc(C(=O)NCC(F)(F)C(F)(F)F)c1 [Compound I-81]	5 (percentage of weeds killed was not less than 80%)	5 (percentage of weeds killed was not less than 80%)	5 (percentage of weeds killed was not less than 80%)	5 (percentage of weeds killed was not less than 80%)	5 (percentage of weeds killed was not less than 80%)	5 (percentage of weeds killed was not less than 80%)	5 (percentage of weeds killed was not less than 80%)	5 (percentage of weeds killed was not less than 80%)	5 (percentage of weeds killed was not less than 80%)	5 (percentage of weeds killed was not less than 80%)	5 (percentage of weeds killed was not less than 80%)
